Assay results reported in ChEMBL document CHEMBL1201862, “PubChem BioAssay data set” (2004).
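Values below derive from 48-hour exposures of cells grown in 96-well plates, with endpoints linearly interpolated between the two concentrations bracketing the appropriate inhibition level. GI50 is the concentration that inhibits growth by half.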 Activity calls are given as the source filed them. Rule as the data show it: active = GI50 up to about 1.1 µM and inactive = higher.

Experiments:
Experiment in all cases: NCI tumour cell line growth inhibition, 48 h
SNB-19 = system: SNB-19
K562 = system: K562
HCC 2998 = system: HCC 2998
MDA-MB-231 = system: MDA-MB-231
IGROV-1 = system: IGROV-1
MOLT-4 = system: MOLT-4
U-251 = system: U-251
786-0 = system: 786-0
DU-145 = system: DU-145
MCF7 = system: MCF7
SF-539 = system: SF-539
SNB-75 = system: SNB-75
SK-MEL-2 = system: SK-MEL-2
ACHN = system: ACHN
SW-620 = system: SW-620
SF-295 = system: SF-295
M14 = system: M14
OVCAR-8 = system: OVCAR-8
OVCAR-3 = system: OVCAR-3
LOX IMVI = system: LOX IMVI

Structure (SMILES) | GI50 (SNB-19) | GI50 (K562) | GI50 (HCC 2998) | GI50 (MDA-MB-231) | GI50 (IGROV-1) | GI50 (MOLT-4) | GI50 (U-251) | GI50 (786-0) | GI50 (DU-145) | GI50 (MCF7) | GI50 (SF-539) | GI50 (SNB-75) | GI50 (SK-MEL-2) | GI50 (ACHN) | GI50 (SW-620) | GI50 (SF-295) | GI50 (M14) | GI50 (OVCAR-8) | GI50 (OVCAR-3) | GI50 (LOX IMVI)
O=C(/C=C/c1ccc(O)c(O)c1)OCCc1cccc2ccccc12 | 10.6 µM (inactive) | 2.77 µM (inactive) | 11.1 µM (inactive) | 2.33 µM (inactive) | 2.76 µM (inactive) | 1.61 µM (inactive) | 6.15 µM (inactive) | 3 µM (inactive) | 5.48 µM (inactive) | 7.31 µM (inactive) | 4.79 µM (inactive) | 2.52 µM (inactive) | 3.44 µM (inactive) | 3.78 µM (inactive) | 5.07 µM (inactive) | 5.26 µM (inactive) | 5.65 µM (inactive) | 5.07 µM (inactive) | 2.32 µM (inactive) | –
O=C(c1ccc([N+](=O)[O-])cc1)N1CCCC1 | > 100 µM (inactive) | > 100 µM (inactive) | > 100 µM (inactive) | > 100 µM (inactive) | > 100 µM (inactive) | > 100 µM (inactive) | > 100 µM (inactive) | > 100 µM (inactive) | > 100 µM (inactive) | > 100 µM (inactive) | > 100 µM (inactive) | > 100 µM (inactive) | – | > 100 µM (inactive) | > 100 µM (inactive) | > 100 µM (inactive) | > 100 µM (inactive) | > 100 µM (inactive) | > 100 µM (inactive) | > 100 µM (inactive)
COC(=O)Cc1c([C@H]2[C@H](CC(=O)OC)c3ccccc3N2S(=O)(=O)c2ccc(C)cc2)[nH]c2ccccc12 | > 100 µM (inactive) | 31.4 µM (inactive) | > 100 µM (inactive) | > 100 µM (inactive) | 3.13 µM (inactive) | 3.4 µM (inactive) | > 100 µM (inactive) | > 100 µM (inactive) | > 100 µM (inactive) | > 100 µM (inactive) | > 100 µM (inactive) | – | > 100 µM (inactive) | > 100 µM (inactive) | > 100 µM (inactive) | > 100 µM (inactive) | > 100 µM (inactive) | > 100 µM (inactive) | > 100 µM (inactive) | > 100 µM (inactive)
O=C(CC(O)(C(F)(F)F)C(F)(F)F)c1cccs1 | > 10 µM (inactive) | > 10 µM (inactive) | > 10 µM (inactive) | > 10 µM (inactive) | > 10 µM (inactive) | > 10 µM (inactive) | > 10 µM (inactive) | > 10 µM (inactive) | > 10 µM (inactive) | > 10 µM (inactive) | > 10 µM (inactive) | > 10 µM (inactive) | – | > 10 µM (inactive) | > 10 µM (inactive) | > 10 µM (inactive) | > 10 µM (inactive) | > 10 µM (inactive) | > 10 µM (inactive) | > 10 µM (inactive)
Cc1nc(N(C(C)C)C(C)C)c(C(C)C)o1 | > 100 µM (inactive) | > 100 µM (inactive) | > 100 µM (inactive) | > 100 µM (inactive) | > 100 µM (inactive) | > 100 µM (inactive) | > 100 µM (inactive) | > 100 µM (inactive) | > 100 µM (inactive) | > 100 µM (inactive) | > 100 µM (inactive) | > 100 µM (inactive) | – | > 100 µM (inactive) | > 100 µM (inactive) | > 100 µM (inactive) | > 100 µM (inactive) | > 100 µM (inactive) | > 100 µM (inactive) | > 100 µM (inactive)
Cc1nc2ccc(Cl)cc2c2c1CCO2 | 60.4 µM (inactive) | > 100 µM (inactive) | > 100 µM (inactive) | 43.5 µM (inactive) | 56.8 µM (inactive) | 45.2 µM (inactive) | > 100 µM (inactive) | > 100 µM (inactive) | 86.5 µM (inactive) | > 100 µM (inactive) | 46.5 µM (inactive) | 69.3 µM (inactive) | – | 86.5 µM (inactive) | > 100 µM (inactive) | 75.7 µM (inactive) | – | 99.5 µM (inactive) | 91.6 µM (inactive) | 67.5 µM (inactive)
O=C1NC2(CCN(CCCC3(c4ccc(F)cc4)OCCO3)CC2)Oc2ccccc21 | > 100 µM (inactive) | 64.4 µM (inactive) | > 100 µM (inactive) | > 100 µM (inactive) | > 100 µM (inactive) | 51.8 µM (inactive) | > 100 µM (inactive) | > 100 µM (inactive) | > 100 µM (inactive) | 86.7 µM (inactive) | 42.9 µM (inactive) | 43.1 µM (inactive) | – | > 100 µM (inactive) | > 100 µM (inactive) | > 100 µM (inactive) | 73.5 µM (inactive) | > 100 µM (inactive) | – | > 100 µM (inactive)
O=c1[nH]c2nc3ccccc3c(=O)n2/c1=C/c1ccc(Cl)cc1 | 23.4 µM (inactive) | – | 21.7 µM (inactive) | 58.1 µM (inactive) | – | 51.6 µM (inactive) | 28.2 µM (inactive) | 24.2 µM (inactive) | 33.3 µM (inactive) | 50.1 µM (inactive) | 21.7 µM (inactive) | – | > 100 µM (inactive) | 65.3 µM (inactive) | 17.9 µM (inactive) | 54.6 µM (inactive) | 36.9 µM (inactive) | 16.1 µM (inactive) | 24.3 µM (inactive) | 30.4 µM (inactive)
CCOC(=O)[C@H](C)OC(=O)[C@@](C)(NC(=O)c1ccccc1C(=O)OC)[C@@H]1NC=C(C(=O)OC)CS1 | > 100 µM (inactive) | 36.5 µM (inactive) | > 100 µM (inactive) | > 100 µM (inactive) | 80 µM (inactive) | 41.8 µM (inactive) | > 100 µM (inactive) | > 100 µM (inactive) | > 100 µM (inactive) | 79.1 µM (inactive) | – | 25.4 µM (inactive) | > 100 µM (inactive) | > 100 µM (inactive) | > 100 µM (inactive) | > 100 µM (inactive) | > 100 µM (inactive) | > 100 µM (inactive) | > 100 µM (inactive) | –
CN(C)c1ccc(C(=NN)c2ccc(N(C)C)cc2)cc1 | 2.2 µM (inactive) | 0.229 µM (active) | 0.551 µM (active) | 0.526 µM (active) | 0.746 µM (active) | 0.361 µM (active) | 0.486 µM (active) | 4.8 µM (inactive) | 2.2 µM (inactive) | 0.573 µM (active) | – | 0.401 µM (active) | 0.121 µM (active) | 8.3 µM (inactive) | 0.462 µM (active) | 0.449 µM (active) | 0.504 µM (active) | 2.52 µM (inactive) | 0.798 µM (active) | 0.966 µM (active)
O=c1c2cc(Br)ccc2oc2ccc(Br)cc12 | > 100 µM (inactive) | > 100 µM (inactive) | > 100 µM (inactive) | > 100 µM (inactive) | > 100 µM (inactive) | > 100 µM (inactive) | 64.6 µM (inactive) | 64.7 µM (inactive) | 84.1 µM (inactive) | 27.5 µM (inactive) | > 100 µM (inactive) | 24.7 µM (inactive) | > 100 µM (inactive) | > 100 µM (inactive) | > 100 µM (inactive) | > 100 µM (inactive) | > 100 µM (inactive) | > 100 µM (inactive) | 71.8 µM (inactive) | –
Cc1ccc(S(=O)(=O)c2c(O)c3ccc(O)c(C)c3oc2=O)cc1 | > 100 µM (inactive) | > 100 µM (inactive) | > 100 µM (inactive) | > 100 µM (inactive) | > 100 µM (inactive) | > 100 µM (inactive) | > 100 µM (inactive) | > 100 µM (inactive) | > 100 µM (inactive) | > 100 µM (inactive) | > 100 µM (inactive) | > 100 µM (inactive) | > 100 µM (inactive) | > 100 µM (inactive) | > 100 µM (inactive) | > 100 µM (inactive) | > 100 µM (inactive) | > 100 µM (inactive) | > 100 µM (inactive) | –
CC(=O)Nc1cc2cc(NS(=O)(=O)c3cc(C(F)(F)F)cc(C(F)(F)F)c3)ccc2oc1=O | 47.2 µM (inactive) | > 100 µM (inactive) | > 100 µM (inactive) | > 100 µM (inactive) | > 100 µM (inactive) | > 100 µM (inactive) | 28.7 µM (inactive) | 72.3 µM (inactive) | > 100 µM (inactive) | > 100 µM (inactive) | 29.4 µM (inactive) | – | > 100 µM (inactive) | > 100 µM (inactive) | > 100 µM (inactive) | > 100 µM (inactive) | > 100 µM (inactive) | 34.3 µM (inactive) | 52.1 µM (inactive) | 98.6 µM (inactive)
Brc1ccc(/N=N/N2CCCC2)cc1 | > 100 µM (inactive) | 60 µM (inactive) | 40.6 µM (inactive) | > 100 µM (inactive) | 34.8 µM (inactive) | 28.6 µM (inactive) | 89.1 µM (inactive) | > 100 µM (inactive) | 49.7 µM (inactive) | 65.8 µM (inactive) | > 100 µM (inactive) | – | 57.1 µM (inactive) | 71.6 µM (inactive) | > 100 µM (inactive) | 77.1 µM (inactive) | > 100 µM (inactive) | – | 81.5 µM (inactive) | 40.4 µM (inactive)
COc1c2occc2cc2ccc(=O)oc12 [METHOXSALEN] | > 100 µM (inactive) | > 100 µM (inactive) | > 100 µM (inactive) | > 100 µM (inactive) | – | > 100 µM (inactive) | > 100 µM (inactive) | > 100 µM (inactive) | > 100 µM (inactive) | > 100 µM (inactive) | > 100 µM (inactive) | – | > 100 µM (inactive) | > 100 µM (inactive) | > 100 µM (inactive) | > 100 µM (inactive) | > 100 µM (inactive) | – | > 100 µM (inactive) | > 100 µM (inactive)
